Experiment [1] has as its target His-tagged recombinant human Gal-3 (hGal-3) (Homo sapiens, UniProt P17931). The experiment in a line: Gal-3 HTRF assay (His-tagged hGal-3 / B-ASF). Format: binding. The settings on record: 15 nM hGal-3, 15 nM B-ASF. The method, then: ASSAY BUFFER Composition: 25 mM HEPES, 100 mM NaCl, 0.005% Tween 20, 0.05% BSA prepared in sterile water (all reagents from Sigma).
• Positive Control: 100% DMSO (1 μL)+His-tagged hGal-3 (20 μL)+B-ASF (20 μL)+Anti-His Terbium Antibody (5 μL)+Strep d2 Antibody (5 μL). • Negative Control: 100% DMSO (1 μL)+His-tagged hGal-3 (20 μL)+Anti His Terbium Antibody (5 μL)+Strep d2 Aantibody (5 μL). Stocks Preparation:
PROTOCOL: The Gal-3 assays were performed in 384 white Opti plates in three replicates at room temperature with gentle shaking at 250-300 rpmFrom the original stocks, […] working stock concentrations of His-tagged recombinant human Gal-3 (hGal-3) and that of B-ASF were prepared. From the working stock, 20 μL of hGal-3 (15 nM) and 20 μL B-ASF (15 nM) were added to the plates. In Negative Control, only hGal-3 was added. A concentration range of 50× working stocks were prepared for the compounds in 100% DMSO. Aliquots of luL of the compounds were added to the wells and pre-incubated with 20 μL hGal-3 per well for 30 minutes Then 20 μL B-ASF wereadded and incubated for another 1 hour. To detect the signal, 5 μL (final conc. of 1.0 nM) terbium labelled Anti-His antibody was added and incubated for 30 min followed by adding 5 μL (final conc. of 20 nM) Streptavidin d2 and incubation for another 1 hour. The assay signal was detected using HTRF screen protocol (Excitation wavelength=340 nm, emission wavelength=615 nm/665 nm) on Envision 2104 Multilabel Reader. Data analysed using Toolset and Curve Master. Results are reported in the experimental section (IC50 in μM).

The target of experiment [2] is T1, hCRBN (NanoLuc-CRBN fusion construct in HEK-293 cells) (Homo sapiens, UniProt Q96SW2).
T1 construct: expressed in transfected cells; host or cells: HEK-293
T1 sequence (Q96SW2 whole entry, the tested form may be a part): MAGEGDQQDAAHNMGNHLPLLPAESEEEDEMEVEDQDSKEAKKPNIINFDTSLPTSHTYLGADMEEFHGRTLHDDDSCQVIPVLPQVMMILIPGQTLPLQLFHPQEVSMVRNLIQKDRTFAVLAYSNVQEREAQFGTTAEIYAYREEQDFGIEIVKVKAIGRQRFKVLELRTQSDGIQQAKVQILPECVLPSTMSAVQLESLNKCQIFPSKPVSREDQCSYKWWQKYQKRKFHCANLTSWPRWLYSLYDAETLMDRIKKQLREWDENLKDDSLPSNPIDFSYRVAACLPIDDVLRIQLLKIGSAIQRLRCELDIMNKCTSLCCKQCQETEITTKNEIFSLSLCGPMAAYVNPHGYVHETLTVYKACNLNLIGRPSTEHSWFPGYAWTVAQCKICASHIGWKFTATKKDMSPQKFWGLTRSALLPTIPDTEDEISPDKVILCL
Put plainly: CRBN BRET Target Engagement. Format: cell-based. The settings on record: NanoLuc-CRBN transfected HEK-293 cells, BRET with CRBN Probe. As to the method:
CRBN BRET Target Engagement (hCRBN IC50 (μM))
NanoLuc-CRBN fusion construct was transfected in HEK-293 cells using FuGENE HD (Promega) according to the manufacturer's protocol. In brief, Nluc-CRBN was diluted into Transfection Carrier DNA (Promega) 1:10 (mass/mass), to which FuGENE HD was 1:3 (μg DNA:μL FuGENE HD). One part (vol) of DNA:FuGENE HD complexes were combined with 20 parts (vol) of HEK-293 cells suspended at a density of […]. Cells were incubated for ˜20 hr at 37° C./5% CO2. Following transfection, cells were washed and resuspended at 200,000 cells/mL in OptiMEM without phenol red (Gibco).
For BRET measurements, cells were seeded in a 384-well nonbinding surface plate (Corning) plate for a final count of 10,000 cells/well. Compounds were dissolved at 10 mM in dimethylsulfoxide (DMSO) and evaluated at eleven concentrations using a high concentration of […]. CRBN Probe was used for equilibrium measurements, employing a final concentration of approximately EC50-80. For live-cell measurements, 20 nM of CRBN Probe was added. For the live-cell assay conditions, the plates were incubated for 2 hours at 37° C./5% CO2. NanoBRET NanoGlo Substrate and Extracellular Nanoluc Inhibitor (Promega) were added according to manufacturer's guidelines. For lytic cell measurements, digitonin was added to the cells to a final concentration of 50 μg/mL and 20 nM of CRBN Probe was added. To measure NanoBRET in permeabilized cells, extracellular Nluc inhibitor was omitted during the detection step. For all BRET experiments, the Envision 2015 (Perkin Elmer) equipped with a BRET2 Enh mirror, BRET 647 nM/75 nM Bandwidth and BC703 460 nM/80 nM Bandwidth filters was used for readouts. Each read was integrated for 0.5 s.
To determine compound potency (IC50), BRET ratios for each dilution series was first normalized to a % Inhibition value via Equation 1, where “S” represents Sample BRET, “B” represents Background BRET, and “T” represents Total BRET. In this equation, the background control (B) consists of NanoLuc-CRBN expressing cells and no CRBN Probe. The total BRET Ratio (T) consists of NanoLuc-CRBN expressing cells, CRBN Probe, and an amount of DMSO at a concentration equivalent to that added when testing compounds.
Following normalization, the percent inhibition values are plotted as a function of compound concentration and fit to Equation 2. […]

For experiment [3], the target named is T2, Gal3 (Human Galectin-3) in THP-1 cells (Homo sapiens, UniProt P17931).
T2 construct: host or cells: THP-1
T2 sequence (P17931 whole entry): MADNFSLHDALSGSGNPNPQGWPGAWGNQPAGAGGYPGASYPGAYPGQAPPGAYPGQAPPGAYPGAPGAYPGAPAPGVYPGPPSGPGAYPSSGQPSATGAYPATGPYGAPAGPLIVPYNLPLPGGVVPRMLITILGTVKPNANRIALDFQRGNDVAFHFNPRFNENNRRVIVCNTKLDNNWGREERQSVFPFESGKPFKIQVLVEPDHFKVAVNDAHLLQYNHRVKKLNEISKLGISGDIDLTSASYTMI
Put plainly: ELISA Gal3 Degradation Assay in THP-1 Cells. It is filed as cell-based. The settings on record: 48 hours, culture media Gal3 by ELISA. The method, then:
[formula] ELISA Gal3 Degradation Assay in THP-1 Cells
THP-1 cells (ATCC, Cat #TIB-202), a human monocyte cell line derived from leukemia were plated at 2E6 cells/mL in 200 uL/well of RPMI 1640 (ThermoFisher, Cat #11835) in 96-well plates. Cells were treated with DMSO as a control and various concentrations of compounds for 48 hours. After the treatment, the culture media were collected. The PBS washed cell pellets were lysed in Lysis Buffer (Cell Signaling, Cat #9803) supplemented with 1XProtease Inhibitor Cocktail (Cell Signaling, Cat #5872). Gal3 levels in culture media and cell lysates were quantified by ELISA assays (Human Galectin-3 DuoSet ELISA kit, R&D Systems, Cat #DY1154) according to manufacturer's instructions. The cell culture media were also used for the assessment of cellular toxicity (LDH Assay kit, R&D Systems, DY994). The IC50 (degradation concentration at 50%) values were calculated based on the cellular Gal3 protein levels using DMSO as the control.

The mark [4] stands for this setting: test 1, read-out: Supernatant (IC50) test 1.
Where [5] appears, read: test 2, read-out: Supernatant (IC50) test 2.

Read-outs that look alike come from different tables or passages of the source.

These results are taken from patent US12291522B2, “Galectin-3 inhibitors” (BRISTOL-MYERS SQUIBB COMPANY, priority 2020, dated 2025).

His-tagged recombinant human Gal-3 (hGal-3), sequence (P17931 whole entry): as above

On to `Cc1nc([C@@H]2O[C@H](CO)[C@H](O)[C@H](n3cc(-c4cc(F)c(Cl)c(F)c4)nn3)[C@H]2OCC(=O)N[C@H]2C[C@@H](Oc3ccc(C(=O)Nc4ccc5c(c4)CN(C4CCC(=O)NC4=O)C5=O)cc3)C2)n(-c2cc(Cl)ccc2C(F)(F)F)n1` (stereo partly drawn) [Example 3, 4-(cis-3-(2-(((2S,3R,4S,5R,6R)-2-(1-(5-Chloro-2-(trifluoromethyl)phenyl)-3-methyl-1H-1,2,4-triazol-5-yl)-4-(4-(4-chloro-3,5-difluorophenyl)-1H-1,2,3-triazol-1-yl)-5-hydroxy-6-(hydroxymethyl)tetrahydro-2H-pyran-3-yl)oxy)acetamido)cyclobutoxy)-N-(2-(2,6-dioxopiperidin-3-yl)-1-oxoisoindolin-5-yl)benzamide], for which the IC50 in experiment [1] was 70 nM; in experiment [2], 126 nM; in experiment [3] (setting [4]), less than 10 nM; in experiment [3] (setting [5]), 48 nM.
In the case of `Cc1nc([C@@H]2O[C@H](CO)[C@H](O)[C@H](n3cc(-c4cc(F)c(Cl)c(F)c4)nn3)[C@H]2OCC(=O)N2CCC(COc3ccc(C(=O)Nc4ccc5c(c4)CN(C4CCC(=O)NC4=O)C5=O)cc3)CC2)n(-c2cc(Cl)ccc2C(F)(F)F)n1` (stereo partly drawn) [Example 27], the IC50 is 312 nM in experiment [1], 374 nM in experiment [2] and 40 nM in experiment [3] (setting [5]).
For the molecule `Cc1nc([C@@H]2O[C@H](CO)[C@H](O)[C@H](n3cc(-c4cc(F)c(Cl)c(F)c4)nn3)[C@H]2OCCOc2ccc(C(=O)Nc3ccc4c(c3)CN(C3CCC(=O)NC3=O)C4=O)cc2)n(-c2cc(Cl)ccc2C(F)(F)F)n1` (stereo partly drawn) [Example 25], the IC50 in experiment [1] stood at 139 nM; in experiment [2], 2690 nM; in experiment [3] (setting [4]), 1700 nM; in experiment [3] (setting [5]), 522 nM.
As for `Cc1nc([C@@H]2O[C@H](CO)[C@H](O)[C@H](n3cc(-c4cc(F)c(Cl)c(F)c4)nn3)[C@H]2OCC(=O)N[C@H]2C[C@@H](Oc3ccc(C(=O)Nc4ccc5c(c4)C(=O)N(C4CCC(=O)NC4=O)C5)nc3)C2)n(-c2cc(Cl)ccc2C(F)(F)F)n1` (stereo partly drawn) [Example 23], the IC50 was 42 nM in experiment [1], 70 nM in experiment [2], 19 nM in experiment [3] (setting [4]) and less than 10 nM in experiment [3] (setting [5]).
The like results for `Cc1nc([C@@H]2O[C@H](CO)[C@H](O)[C@H](n3cc(-c4cc(F)c(Cl)c(F)c4)nn3)[C@H]2OCC(=O)N2CC(Oc3ccc(C(=O)Nc4ccc5c(c4)CN(C4CCC(=O)NC4=O)C5=O)cc3)C2)n(-c2cc(Cl)ccc2C(F)(F)F)n1` (stereo partly drawn) [Example 8, 4-((1-(2-(((2S,3R,4S,5R,6R)-2-(1-(5-Chloro-2-(trifluoromethyl)phenyl)-3-methyl-1H-1,2,4-triazol-5-yl)-4-(4-(4-chloro-3,5-difluorophenyl)-1H-1,2,3-triazol-1-yl)-5-hydroxy-6-(hydroxymethyl)tetrahydro-2H-pyran-3-yl)oxy)acetyl)azetidin-3-yl)oxy)-N-(2-(2,6-dioxopiperidin-3-yl)-1-oxoisoindolin-5-yl)benzamide] were, in that order, 48 nM, 1420 nM, 281 nM and 38 nM.
For `Cc1nc([C@@H]2O[C@H](CO)[C@H](O)[C@H](n3cc(-c4cc(F)c(Cl)c(F)c4)nn3)[C@H]2OCC(=O)N2CC(COc3ccc(C(=O)Nc4ccc5c(c4)CN(C4CCC(=O)NC4=O)C5=O)nc3)C2)n(-c2cc(Cl)ccc2C(F)(F)F)n1` (stereo partly drawn) [Example 26] the same measures were 85 nM, 251 nM, 9 nM and 9 nM.
The like results for `Cc1nc([C@@H]2O[C@H](CO)[C@H](O)[C@H](n3cc(-c4cc(F)c(Cl)c(F)c4)nn3)[C@H]2OCC(=O)N[C@H]2C[C@@H](Oc3ccc(C(=O)Nc4ccc5c(c4)CN([C@H]4CCC(=O)NC4=O)C5=O)nc3)C2)n(-c2cc(Cl)ccc2C(F)(F)F)n1` [Example 5, 5-(cis-3-(2-(((2S,3R,4S,5R,6R)-2-(1-(5-chloro-2-(trifluoromethyl)phenyl)-3-methyl-1H-1,2,4-triazol-5-yl)-4-(4-(4-chloro-3,5-difluorophenyl)-1H-1,2,3-triazol-1-yl)-5-hydroxy-6-(hydroxymethyl)tetrahydro-2H-pyran-3-yl)oxy)acetamido)cyclobutoxy)-N-(2-((S)-2,6-dioxopiperidin-3-yl)-1-oxoisoindolin-5-yl)picolinamide] were, in that order, 84 nM, 39 nM, less than 10 nM and less than 10 nM.
On to `Cc1nc([C@@H]2O[C@H](CO)[C@H](O)[C@H](n3cc(-c4cc(F)c(Cl)c(F)c4)nn3)[C@H]2OCC(=O)N[C@H]2C[C@@H](Oc3ccc(C(=O)Nc4ccc5c(c4)CN(C4CCC(=O)NC4=O)C5=O)nc3)C2)n(-c2cc(Cl)ccc2C(F)(F)F)n1` (stereo partly drawn) [Example 4, 5-(cis-3-(2-(((2S,3R,4S,5R,6R)-2-(1-(5-Chloro-2-(trifluoromethyl)phenyl)-3-methyl-1H-1,2,4-triazol-5-yl)-4-(4-(4-chloro-3,5-difluorophenyl)-1H-1,2,3-triazol-1-yl)-5-hydroxy-6-(hydroxymethyl)tetrahydro-2H-pyran-3-yl)oxy)acetamido)cyclobutoxy)-N-(2-(2,6-dioxopiperidin-3-yl)-1-oxoisoindolin-5-yl)picolinamide], for which the IC50 in experiment [1] is 81 nM; in experiment [2], 174 nM; in experiment [3] (setting [4]), 68 nM; in experiment [3] (setting [5]), 96 nM.
The like results for `Cc1nc([C@@H]2O[C@H](CO)[C@H](O)[C@H](n3cc(-c4cc(F)c(Cl)c(F)c4)nn3)[C@H]2OCC(=O)N2CCC(Oc3ccc(C(=O)Nc4ccc5c(c4)CN(C4CCC(=O)NC4=O)C5=O)cc3)CC2)n(-c2cc(Cl)ccc2C(F)(F)F)n1` (stereo partly drawn) [Example 31] were, in that order, 139 nM, 447 nM, 50 nM and 14 nM.
Take `Cc1nc([C@@H]2O[C@H](CO)[C@H](O)[C@H](n3cc(-c4cc(F)c(Cl)c(F)c4)nn3)[C@H]2OCC(=O)N2CC(COc3ccc(C(=O)Nc4cccc5c4CN(C4CCC(=O)NC4=O)C5=O)cc3)C2)n(-c2cc(Cl)ccc2C(F)(F)F)n1` (stereo partly drawn) [Example 30]: the IC50 in experiment [1] came to 86 nM; in experiment [2], 10600 nM; in experiment [3] (setting [4]) it was 854 nM; in experiment [3] (setting [5]), 50 nM.
